Experimental data published in ChEMBL document CHEMBL1201862, “PubChem BioAssay data set” (2004).
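Assay format: 96-well plates, 48-hour exposure. GI50 is the concentration that inhibits growth by half.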 The source made the active and inactive calls. Cut-off read from the data, not from the text of the source: active = GI50 up to about 1.1 µM and inactive = higher.

Legend:
Test in all cases: growth of human tumour cells (NCI), 48 h
[1] = test system: 786-0
[2] = test system: A498
[3] = test system: A549
[4] = test system: ACHN
[5] = test system: BT-549
[6] = test system: CAKI-1
[7] = test system: CCRF-CEM
[8] = test system: COLO 205
[9] = test system: DU-145
[10] = test system: EKVX
[11] = test system: HCC 2998
[12] = test system: HCT-116
[13] = test system: HCT-15
[14] = test system: HL-60
[15] = test system: HOP-62
[16] = test system: HOP-92
[17] = test system: HT-29
[18] = test system: Hs-578T
[19] = test system: IGROV-1
[20] = test system: K562
[21] = test system: KM12
[22] = test system: LOX IMVI
[23] = test system: M14
[24] = test system: MCF7
[25] = test system: MDA-MB-231
[26] = test system: MDA-MB-435
[27] = test system: MDA-N
[28] = test system: MOLT-4
[29] = test system: Malme-3M
[30] = test system: NCI-H226
[31] = test system: NCI-H23
[32] = test system: NCI-H522
[33] = test system: NCI/ADR-RES
[34] = test system: OVCAR-3
[35] = test system: OVCAR-4
[36] = test system: OVCAR-5
[37] = test system: OVCAR-8
[38] = test system: RPMI-8226
[39] = test system: RXF 393
[40] = test system: SF-268
[41] = test system: SF-295
[42] = test system: SF-539
[43] = test system: SK-MEL-2
[44] = test system: SK-MEL-5
[45] = test system: SK-OV-3
[46] = test system: SN12C
[47] = test system: SNB-19
[48] = test system: SNB-75
[49] = test system: SW-620
[50] = test system: T47D
[51] = test system: TK-10
[52] = test system: UACC-257
[53] = test system: UACC-62
[54] = test system: UO-31

Structure (SMILES): C=C(C)[C@@H]1CCC2=C[C@@H](OC2=O)[C@@H](C(=C)C)C2=CC(C(=O)O)=C(C1)O2
- GI50 [1]: > 100 µM (inactive)
- GI50 [2]: > 100 µM (inactive)
- GI50 [3]: > 100 µM (inactive)
- GI50 [4]: > 100 µM (inactive)
- GI50 [5]: > 100 µM (inactive)
- GI50 [6]: > 100 µM (inactive)
- GI50 [7]: 38.7 µM (inactive)
- GI50 [8]: > 100 µM (inactive)
- GI50 [9]: > 100 µM (inactive)
- GI50 [10]: > 100 µM (inactive)
- GI50 [11]: > 100 µM (inactive)
- GI50 [12]: 60.4 µM (inactive)
- GI50 [13]: > 100 µM
- GI50 [14]: 78 µM (inactive)
- GI50 [15]: > 100 µM (inactive)
- GI50 [16]: > 100 µM (inactive)
- GI50 [17]: > 100 µM (inactive)
- GI50 [18]: > 100 µM (inactive)
- GI50 [19]: > 100 µM (inactive)
- GI50 [20]: 41 µM (inactive)
- GI50 [21]: 80.2 µM (inactive)
- GI50 [22]: 42 µM (inactive)
- GI50 [23]: > 100 µM (inactive)
- GI50 [24]: 68.1 µM (inactive)
- GI50 [25]: > 100 µM (inactive)
- GI50 [26]: > 100 µM (inactive)
- GI50 [27]: > 100 µM (inactive)
- GI50 [28]: 46.3 µM (inactive)
- GI50 [29]: > 100 µM (inactive)
- GI50 [30]: > 100 µM (inactive)
- GI50 [31]: > 100 µM (inactive)
- GI50 [32]: > 100 µM (inactive)
- GI50 [33]: > 100 µM (inactive)
- GI50 [34]: 34.1 µM (inactive)
- GI50 [35]: > 100 µM (inactive)
- GI50 [36]: > 100 µM (inactive)
- GI50 [37]: > 100 µM (inactive)
- GI50 [38]: 40.6 µM (inactive)
- GI50 [39]: > 100 µM (inactive)
- GI50 [40]: > 100 µM (inactive)
- GI50 [41]: > 100 µM (inactive)
- GI50 [42]: > 100 µM (inactive)
- GI50 [43]: > 100 µM (inactive)
- GI50 [44]: > 100 µM (inactive)
- GI50 [45]: > 100 µM (inactive)
- GI50 [46]: > 100 µM (inactive)
- GI50 [47]: > 100 µM (inactive)
- GI50 [48]: > 100 µM (inactive)
- GI50 [49]: > 100 µM (inactive)
- GI50 [50]: 59.2 µM (inactive)
- GI50 [51]: > 100 µM (inactive)
- GI50 [52]: > 100 µM (inactive)
- GI50 [53]: > 100 µM (inactive)
- GI50 [54]: 26 µM (inactive)
